As a reminder, the MIC is the smallest concentration in the dilution series that meets the test's criterion for growth inhibition.

Calls of active or inactive are those of the source.

Test [1] deals with Streptococcus pneumoniae. Nature of the test: Antibacterial activity against tetracycline resistant Streptococcus pneumoniae clinical isolate expressing erm(B) and tet(M) gene by agar dilution CLSI method. It counts as functional. For orientation: Agar dilution tests growth on a series of plates holding different concentrations.
Test [2] relates to Streptococcus pneumoniae. Nature of the test: Antibacterial activity against tnpR/tnpA positive tetracycline resistant Streptococcus pneumoniae clinical isolate expressing Tn3872 carrying erm(B) and tet(M) gene at 1000 ug by disk diffusion method. In kind it is functional, organism-based.
Test [3] has as its system Streptococcus pneumoniae. Nature of the test: Antibacterial activity against tetracycline resistant Streptococcus pneumoniae clinical isolate expressing Tn6002 carrying erm(B) and tet(M) gene at 1000 ug by disk diffusion method. It counts as functional, organism-based.
The subject of test [4] is Streptococcus pneumoniae. Nature of the test: Antibacterial activity against aphA-3 positive tetracycline resistant Streptococcus pneumoniae clinical isolate expressing Tn6003 carrying erm(B)and tet(M) gene at 1000 ug by disk diffusion method. It counts as functional, organism-based.

The compound `CC[C@H]1OC(=O)[C@H](C)[C@@H](O[C@H]2C[C@@](C)(OC)[C@@H](O)[C@H](C)O2)[C@H](C)[C@@H](O[C@@H]2O[C@H](C)C[C@H](N(C)C)[C@H]2O)[C@](C)(O)C[C@@H](C)C(=O)[C@H](C)[C@@H](O)[C@]1(C)O` [ERYTHROMYCIN] returned a minimum inhibitory concentration (MIC) against Streptococcus pneumoniae [1] greater than 128 µg/mL. Same read-out and setting: as for `CN(C)[C@@H]1C(O)=C(C(N)=O)C(=O)[C@@]2(O)C(O)=C3C(=O)c4c(O)cccc4[C@@](C)(O)[C@H]3C[C@@H]12` [TETRACYCLINE], the figure is greater than 32 µg/mL. In the case of `NC[C@H]1O[C@H](O[C@H]2[C@H](O)[C@@H](O[C@H]3O[C@H](CO)[C@@H](O)[C@H](N)[C@H]3O)[C@H](N)C[C@@H]2N)[C@H](O)[C@@H](O)[C@@H]1O`, the outcome in the test on Streptococcus pneumoniae [2] and in the test on Streptococcus pneumoniae [3] was Active. The result with Streptococcus pneumoniae [4] was inactive.

Values taken from ChEMBL document CHEMBL1255326, “erm(B)-carrying elements in tetracycline-resistant pneumococci and correspondence between Tn1545 and Tn6003” (2008).
